ChEMBL document CHEMBL5331133, “Discovery of AZD4747, a Potent and Selective Inhibitor of Mutant GTPase KRASG12C with Demonstrable CNS Penetration” (J Med Chem, 2023)

What was measured:
[1] = […] stability in rat hepatocyte assessed as intrinsic clearance measured per million of cells; type: ADME, cell-based; conditions: hepatocytes
[2] = Lipophilicity, logD of compound at 7.4; conditions: octanol/water
[3] = human, microsomes
Description: (§2) Microsomal stability in human liver microsomes assessed as intrinsic clearance

[4] = biological target: GTPase KRas (Homo sapiens, UniProt P01116, G12C)
[5] = (§1) Efflux ratio of apparent permeability in dog MDCK cells transfected with MDR1 and BCRP at 0.1 uM; type: ADME, cell-based, Canis lupus familiaris; conditions: mdck, 0.1 µM
[6] = in vitro; conditions: human, liver microsomes, CLH
Description: as §2

[7] = tested on: MDR1 and BCRP; assay: as §1; type: ADME, cell-based, Canis lupus familiaris
[8] = Unbound brain-to-plasma concentration ratio in Wistar Han rat at 2.3 microM/Kg, iv and measured after 4 hrs; type: ADME, organism-based; conditions: read-out: K(p,uu,brain)
[9] = tested on: NCI-H358; assay: Antiproliferative activity against human NCI-H358 cells harboring KRAS G12C mutant cultured as 3D spheroids assessed as reduction in cell proliferation incubated for 3 days by CellTiter-Glo 3D reagent based assay; type: functional; conditions: NCI-H358, 72 h
[10] = Dissociation constant, pKa of the compound; type: physicochemical

Sequence of GTPase KRas (P01116 whole entry G12C): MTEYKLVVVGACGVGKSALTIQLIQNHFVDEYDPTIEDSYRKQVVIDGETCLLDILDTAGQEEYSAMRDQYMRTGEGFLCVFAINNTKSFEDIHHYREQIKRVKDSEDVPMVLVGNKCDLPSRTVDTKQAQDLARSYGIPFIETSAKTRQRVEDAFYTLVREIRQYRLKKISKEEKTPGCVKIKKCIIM

| CLH [1] [µL/min] | logD ([2]; pH 7.4) | CLH [3] [µL/min/mg] | IC50 [4] [nM] | Ratio [5] | logD ([2]; pH 7.4, logD) | microsomal CLint [6] [µL/min/mg] | efflux ratio at 0.1 µM [7] | Kp uu at 4 h [8] | IC50 [9] [nM] | pKa [10] | SMILES |
| --- | --- | --- | --- | --- | --- | --- | --- | --- | --- | --- | --- |
| 97 | 3.3 | > 300 | 4010 | 2.1 | – | – | – | – | – | – | C=CC(=O)N1CCN2Cc3ccc(-c4c(C)ccc5[nH]ncc45)c(Cl)c3OCCC2C1 (stereo in doubt; 20) |
| 18 | – | – | 279 | – | 2.5 | 5 | – | – | – | – | C=CC(=O)N1CCN2Cc3cc(F)c(-c4c(O)cccc4F)c(F)c3OC[C@H]2C1 |
| 48 | – | – | 99 | – | 2 | 41 | – | – | – | – | C=CC(=O)N1CCN2C(=O)c3cc(OCCOC)c(-c4c(O)cccc4Cl)c(F)c3OC[C@H]2C1 |
| 44 | – | – | 29 | – | 3.2 | 17 | 0.6 | – | – | – | C=CC(=O)N1CCN2Cc3cc(Cl)c(-c4c(O)cccc4Cl)c(F)c3OC[C@H]2C1 |
| 93 | – | – | 4300 | – | 2.8 | 54 | 1.4 | – | – | – | C=CC(=O)N1CCN2C(=O)c3ccc(-c4c(C)ccc5[nH]ncc45)c(Cl)c3OC[C@@H]2C1 |
| 41 | – | – | 3 | – | 3.2 | 26 | 37.2 | 0.06 | – | – | C=CC(=O)N1C[C@H]2CCOc3c(Cl)c(-c4c(O)cccc4F)c(F)c4ncnc(c34)N2C[C@H]1C |
| 38 | – | – | 13600 | – | 3.2 | 18 | – | – | – | – | C#Cc1cc(CN2CCN(C(=O)C=C)CC2)cc(F)c1-c1c(O)cccc1Cl |
| 130 | – | – | 1310 | – | 3.5 | > 294 | 0.9 | 0.41 | – | – | C=CC(=O)N1CCN2Cc3ccc(-c4c(C)ccc5[nH]ncc45)c(Cl)c3OC[C@@H]2C1 |
| 29 | – | – | 90 | – | 2.4 | 19 | 1.2 | 0.15 | – | – | C=CC(=O)N1CCN2Cc3cc(F)c(-c4c(C)cccc4O)c(F)c3OC[C@H]2C1 |
| 18 | – | – | – | – | 2.3 | 36 | – | 0.01 | 1 | – | C=CC(=O)N1CCN(c2nc(=O)n(-c3c(C)ccnc3C(C)C)c3nc(-c4c(O)cccc4F)c(F)cc23)[C@@H](C)C1 [SOTORASIB] |
| 23 | – | – | 19 | – | 2.7 | 16 | 1 | 0.05 | – | 3.9 | C#Cc1cc2c(c(F)c1-c1c(O)cccc1Cl)OC[C@H]1CN(C(=O)C=C)CCN1C2 |
| 59 | – | – | 74 | – | 2.2 | 15 | 1.9 | – | – | – | C=CC(=O)N1CCN2Cc3cc(OC)c(-c4c(O)cccc4Cl)c(F)c3OC[C@H]2C1 |
| 143 | – | – | 160 | – | 2.7 | 18 | – | – | – | – | C=CC(=O)N1CCN2Cc3cc(OC(F)F)c(-c4c(O)cccc4Cl)c(F)c3OC[C@H]2C1 |
| 42 | – | – | 149 | – | 2.8 | 8 | 1.2 | – | – | – | C=CC(=O)N1CCN2Cc3cc(F)c(-c4c(O)cccc4F)c(Cl)c3OC[C@H]2C1 |
| 12 | – | – | – | – | 3.6 | 80 | – | 0.01 | 6 | – | C=C(F)C(=O)N1CCN(c2nc(OC[C@@H]3CCCN3C)nc3c2CCN(c2cccc4cccc(Cl)c24)C3)C[C@@H]1CC#N [ADAGRASIB] |
| 156 | – | – | 332 | – | 3.2 | 86 | 0.4 | 0.24 | – | – | C=CC(=O)N1CCN2Cc3ccc(-c4c(C)ccc5[nH]ncc45)c(Cl)c3OC[C@H]2C1 |
| 54 | – | – | 16 | – | 2.5 | 13 | 6.5 | – | – | – | C=CC(=O)N1CCN2Cc3cc(C#N)c(-c4c(O)cccc4Cl)c(F)c3OC[C@H]2C1 |
| 109 | – | – | – | – | – | 58 | – | – | – | – | C=CC(=O)N1CCN2c3ncnc4cc(-c5c(C)ccc6[nH]ncc56)c(Cl)c(c34)OC[C@@H]2C1 |
| 52 | – | – | 231 | – | – | 33 | 0.8 | – | – | – | C=CC(=O)N1CCN2Cc3ccc(-c4c(O)cccc4F)c(Cl)c3OC[C@H]2C1 |
| 174 | – | – | 81 | – | 2.6 | 25 | – | – | – | – | C=CC(=O)N1CCN2Cc3cc(OC4CC4)c(-c4c(O)cccc4Cl)c(F)c3OC[C@H]2C1 |
| 234 | – | – | 8290 | – | 3.2 | 294 | 1.4 | – | – | – | C=CC(=O)N1CCN2Cc3ccc(-c4c(C)ccc5[nH]ncc45)c(Cl)c3OCCC2C1 (stereo in doubt; 19) |
| 101 | – | – | 22 | – | 3.2 | 97 | – | – | – | – | C=CC(=O)N1CCN2Cc3cc(C4CC4)c(-c4c(O)cccc4Cl)c(F)c3OC[C@H]2C1 |
| 8 | – | – | 110 | – | 1 | 10 | 12.4 | – | – | – | C=CC(=O)N1CCN2Cc3cc(OCCN(C)C)c(-c4c(O)cccc4Cl)c(F)c3OC[C@H]2C1 |
| 122 | – | – | 7820 | – | 3.3 | < 3 | – | – | – | – | C=CC(=O)N1CCN(Cc2cc(F)c(-c3c(O)cccc3Cl)c(F)c2)CC1 |
| 99 | – | – | 130 | – | 3 | 63 | – | – | – | – | C=CC(=O)N1CCN2Cc3cc(C(F)F)c(-c4c(O)cccc4Cl)c(F)c3OC[C@H]2C1 |
| 20 | – | – | 43 | – | 2.8 | < 7 | 0.7 | 0.11 | – | 3.9 | C=CC(=O)N1CCN2Cc3cc(F)c(-c4c(O)cccc4Cl)c(F)c3OC[C@H]2C1.O |
